Experimental data taken from ChEMBL document CHEMBL6071176, “Development of Phloroglucinol-Linked Tris-Quaternary Ammonium Salt Antimicrobial Peptide Mimics with Low Cytotoxicity and Broad-Spectrum Antibacterial Activity” (J Med Chem, 2024).
In brackets after ≈: the same amount, converted by molar mass. Activity calls are given as the source filed them. No cut-off for these calls is given here. *1 amine or outer side, *2 acyl side, *3 side chain or, on linkers, in order; H or OH if unused. Where a SMILES comes first, the peptide text is derived from it. Bridges are numbered along the chain shown (N, C = ends). Side-chain parts run from the residue outwards. [ ]: non-standard residue; d: D form. The star is where a group is joined. X1 = C[C@@H](O)[C@H](CN([C@@H](CCN)C(=O)[*:2])[*:1])N[*:3]; Octanoyl(6-Me) = CCC(C)CCCCC(=O)*; Dab = NCC[C@H](N)C(=O)O

How the values were obtained:
[1] = test system: Staphylococcus aureus; assay: Antibacterial activity against NDM-1 gene-resistant Staphylococcus aureus assessed as inhibition of bacterial growth incubated for 18 hrs by CLSI guidelines based assay; format: functional
[2] = test system: Escherichia coli; assay: Antimicrobial activity against Escherichia coli assessed as inhibition of growth incubated for 18 hrs by CLSI guidelines based assay; format: functional
[3] = Hemolytic activity in sheep red blood cells measured after 1 hr incubation; format: toxicity, cell-based, Ovis aries, Erythrocyte
[4] = test system: Staphylococcus aureus; assay: Antimicrobial activity against Staphylococcus aureus assessed as inhibition of growth incubated for 18 hrs by CLSI guidelines based assay; format: functional
[5] = test system: Enterococcus faecalis; assay: Antimicrobial activity against Enterococcus faecalis assessed as inhibition of growth incubated for 18 hrs by CLSI guidelines based assay; format: functional
[6] = test system: Stenotrophomonas maltophilia; assay: Antimicrobial activity against Stenotrophomonas maltophilia assessed as inhibition of growth incubated for 18 hrs by CLSI guidelines based assay; format: functional
[7] = Selectivity index, ratio of HC50 for sheep red blood cells to MIC for Staphylococcus aureus; format: toxicity, cell-based, RBC; conditions: read-out: Selectivity Index
[8] = Cytotoxicity against human Gastric mucosal cells measured after 24 hrs by CCK-8 assay; format: toxicity, cell-based, Gastric mucosal cell
[9] = test system: Cell membrane; assay: Induction of Cytoplasmic membrane depolarization in Staphylococcus aureus assessed as increase in fluorescence intensity measured at 6 times of MIC measured after 4 hrs by DiSC3(5) dye-based fluorescence assay; format: subcellular
[10] = test system: Staphylococcus aureus; assay: Resistance development in Staphylococcus aureus assessed as increase in MIC measured after 20 passages of continues culture; format: functional
[11] = Hemolytic activity in human erythrocytes; format: toxicity, cell-based, Erythrocyte
[12] = test system: Staphylococcus aureus; assay: Antibacterial activity against methicillin-resistant Staphylococcus aureus; format: functional
[13] = Selectivity index, ratio of HC50 for human erythrocytes to MIC for methicillin-resistant Staphylococcus aureus; format: toxicity, cell-based, RBC; conditions: read-out: Selectivity Index
[14] = test system: Staphylococcus aureus; assay: Antibacterial activity against methicillin-resistant Staphylococcus aureus assessed as inhibition of bacterial growth incubated for 18 hrs by CLSI guidelines based assay; format: functional
[15] = test system: Staphylococcus aureus; assay: Anti-bacterial activity against 100 times rifampicin induced persistent cells of Staphylococcus aureus assessed as reduction in persistent cells at 32 times of MIC; format: functional
[16] = test system: Staphylococcus aureus; assay: Anti-biofilim activity against Staphylococcus aureus biofilm assessed bio-film thickness at 32 ug/ml measured after 24 hrs incubation by SYTO 9 staining based […] laser scanning microscopy (CLSM) (reference value: 29.5 microm); format: functional; conditions: dose 32 µg/ml
[17] = test system: Staphylococcus aureus; assay: Antibacterial activity against methicillin-resistant Staphylococcus aureus assessed as inhibition of bacterial growth measured immediately after addition in presence of plasma; format: functional, organism-based
[18] = test system: Staphylococcus aureus; assay: Bactericidal activity against early exponential phase Staphylococcus aureus assessed as bacterial killing at 6 ug/ml incubated for 12 hrs by time-kill assay; format: functional, organism-based; conditions: dose 6.0 µg/ml
[19] = test system: Staphylococcus aureus; assay: In vivo antibacterial activity against methicillin-resistant Staphylococcus aureus subcutaneously infected in SPF female Kunming mouse model assessed as bacteria count in dissected mouse at 10 mg/kg/day injected into blister after 6 hrs of infection measured after 6 consecutive treatments; format: functional, organism-based
[20] = test system: Staphylococcus aureus; assay: Bactericidal activity against early exponential phase Staphylococcus aureus assessed as bacterial killing at 6 ug/ml incubated for 4 hrs by time-kill assay; format: functional, organism-based; conditions: dose 6.0 µg/ml
[21] = Hemolytic activity in red blood cells (unknown origin); format: toxicity, cell-based, Erythrocyte
[22] = Selectivity index, ratio of HC50 for RBC (unknown origin) to MIC for Staphylococcus aureus; format: toxicity, cell-based; conditions: red blood cells; read-out: Selectivity Index
[23] = test system: Staphylococcus aureus; assay: Antibacterial activity against Staphylococcus aureus; format: functional

## CO[C@H]1/C=C/O[C@@]2(C)Oc3c(C)c(O)c4c(O)c(c(/C=N/N5CCN(C)CC5)c(O)c4c3C2=O)NC(=O)/C(C)=C\C=C\[C@H](C)[C@H](O)[C@@H](C)[C@@H](O)[C@@H](C)[C@H](OC(C)=O)[C@@H]1C [RIFAMPIN]
[1]
  MIC90: > 32 µg/mL

## CNC(C)[C@@H]1CC[C@@H](N)[C@@H](O[C@H]2[C@H](O)[C@@H](O[C@H]3OC[C@](C)(O)[C@H](NC)[C@H]3O)[C@H](N)C[C@@H]2N)O1.CN[C@@H]1[C@@H](O)[C@@H](O[C@@H]2[C@@H](O)[C@H](O[C@H]3O[C@H](C(C)N)CC[C@H]3N)[C@@H](N)C[C@H]2N)OC[C@]1(C)O.CN[C@@H]1[C@@H](O)[C@@H](O[C@@H]2[C@@H](O)[C@H](O[C@H]3O[C@H](CN)CC[C@H]3N)[C@@H](N)C[C@H]2N)OC[C@]1(C)O (some centres not stated)
[1]
  MIC90: > 32 µg/mL

## C[N+](C)(CCCCCOc1cc(OCCCCC[N+](C)(C)CCCCc2ccccc2)cc(OCCCCC[N+](C)(C)CCCCc2ccccc2)c1)CCCCc1ccccc1.[Br-].[Br-].[Br-]
[2]
  MIC: 2 µg/mL
[3]
  HC50 at 1 h: > 1280 µg/mL
[4]
  MIC: 1 µg/mL
[5]
  MIC: 2 µg/mL
[6]
  MIC: 2 µg/mL
[7]
  selectivity ratio: > 1280
[8]
  CC50 at 24 h: < 30 µg/mL

## C[N+](C)(CCCCCOc1ccccc1)CCCCCOc1cc(OCCCCC[N+](C)(C)CCCCCOc2ccccc2)cc(OCCCCC[N+](C)(C)CCCCCOc2ccccc2)c1.[Br-].[Br-].[Br-]
[2]
  MIC: 1 µg/mL
[3]
  HC50 at 1 h: > 1280 µg/mL
[4]
  MIC: 1 µg/mL
[5]
  MIC: 2 µg/mL
[6]
  MIC: 2 µg/mL
[7]
  selectivity ratio: > 1280
[8]
  CC50 at 24 h: < 30 µg/mL

## C[N+](C)(CCCCCOc1cc(OCCCCC[N+](C)(C)CCCOc2ccccc2)cc(OCCCCC[N+](C)(C)CCCOc2ccccc2)c1)CCCOc1ccccc1.[Br-].[Br-].[Br-]
[2]
  MIC: 2 µg/mL
[3]
  HC50 at 1 h: > 1280 µg/mL
[4]
  MIC: 1 µg/mL
[5]
  MIC: 1 µg/mL
[6]
  MIC: 2 µg/mL
[7]
  selectivity ratio: > 1280
[8]
  CC50 at 24 h: < 30 µg/mL

## C[N+](C)(CCCCCOc1cc(OCCCCC[N+](C)(C)CCCCOc2ccccc2)cc(OCCCCC[N+](C)(C)CCCCOc2ccccc2)c1)CCCCOc1ccccc1.[Br-].[Br-].[Br-]
[2]
  MIC: 2 µg/mL
[3]
  HC50 at 1 h: > 1280 µg/mL
[4]
  MIC: 1 µg/mL
[5]
  MIC: 2 µg/mL
[6]
  MIC: 4 µg/mL
[7]
  selectivity ratio: > 1280
[8]
  CC50 at 24 h: < 30 µg/mL

## CC[C@H](C)[C@H](NC(=O)CN)C(=O)NCC(=O)N[C@@H](C)C(=O)N[C@H](C(=O)N[C@@H](CC(C)C)C(=O)N[C@@H](CCCCN)C(=O)N[C@H](C(=O)N[C@@H](CC(C)C)C(=O)N[C@H](C(=O)N[C@H](C(=O)NCC(=O)N[C@@H](CC(C)C)C(=O)N1CCC[C@H]1C(=O)N[C@@H](C)C(=O)N[C@@H](CC(C)C)C(=O)N[C@H](C(=O)N[C@@H](CO)C(=O)N[C@@H](Cc1c[nH]c2ccccc12)C(=O)N[C@H](C(=O)N[C@@H](CCCCN)C(=O)N[C@@H](CCCNC(=N)N)C(=O)N[C@@H](CCCCN)C(=O)N[C@@H](CCCNC(=N)N)C(=O)N[C@@H](CCC(N)=O)C(=O)N[C@@H](CCC(N)=O)C(N)=O)[C@@H](C)CC)[C@@H](C)CC)[C@@H](C)O)[C@@H](C)O)C(C)C)C(C)C
[9]
  Activity: Active

## CCn1cc(C(=O)O)c(=O)c2cc(F)c(N3CCNCC3)cc21 [NORFLOXACIN]
[10]
  MIC: 4 µg/mL

## CCCCCC[N+](C)(C)CCCCCOc1cc(OCCCCC[N+](C)(C)CCCCCC)cc(OCCCCC[N+](C)(C)CCCCCC)c1.[Br-].[Br-].[Br-]
[2]
  MIC: 8 µg/mL
[3]
  HC50 at 1 h: > 1280 µg/mL
[4]
  MIC: 1 µg/mL
[5]
  MIC: 2 µg/mL
[6]
  MIC: 4 µg/mL
[7]
  selectivity ratio: > 1280
[8]
  CC50 at 24 h: < 30 µg/mL

## CCCCCCN(CCCOc1ccccc1-c1ccccc1OCCCN(CCCCCC)C(=O)[C@@H](N)CCCCN)C(=O)[C@@H](N)CCCCN.Cl.Cl.Cl.Cl
[11]
  HC50: > 1000 µg/mL
[12]
  MIC: 0.5 µg/mL
[13]
  selectivity ratio: > 2000

## CC[C@H]1OC(=O)[C@H](C)[C@@H](O[C@H]2C[C@@](C)(OC)[C@@H](O)[C@H](C)O2)[C@H](C)[C@@H](O[C@@H]2O[C@H](C)C[C@H](N(C)C)[C@H]2O)[C@](C)(O)C[C@@H](C)C(=O)[C@H](C)[C@@H](O)[C@]1(C)O [ERYTHROMYCIN]
[1]
  MIC90: > 32 µg/mL

## CC(C)CCCCC(=O)N[C@@H](CCN)C(=O)N[C@@H](CN[C@@H](CCN)C(=O)N[C@H]1CCNC(=O)[C@H]([C@@H](C)O)NC(=O)[C@H](CCN)NC(=O)[C@H](CCN)NC(=O)[C@H](CC(C)C)NC(=O)[C@@H](CC(C)C)NC(=O)[C@H](CCN)NC1=O)[C@@H](C)O.CCC(C)CCCCC(=O)N[C@@H](CCN)C(=O)N[C@@H](CN[C@@H](CCN)C(=O)N[C@H]1CCNC(=O)[C@H]([C@@H](C)O)NC(=O)[C@H](CCN)NC(=O)[C@H](CCN)NC(=O)[C@H](CC(C)C)NC(=O)[C@@H](CC(C)C)NC(=O)[C@H](CCN)NC1=O)[C@@H](C)O (stereo partly drawn) (H-[X1]([Dab-Octanoyl(6-Me)])[Dab][Dab][dL]L[Dab][Dab]T; lactam 2-C)
[10]
  MIC: 4 µg/mL

## C[C@H]1c2cccc(O)c2C(=O)C2=C(O)[C@]3(O)C(=O)C(C(N)=O)=C(O)[C@@H](N(C)C)[C@@H]3[C@@H](O)[C@@H]21 [DOXYCYCLINE ANHYDROUS]
[14]
  MIC90: ≥ 16 µg/mL
[1]
  MIC90: > 32 µg/mL

## CCCCCCCC[N+](C)(C)CCCCCOc1cc(OCCCCC[N+](C)(C)CCCCCCCC)cc(OCCCCC[N+](C)(C)CCCCCCCC)c1.[Br-].[Br-].[Br-]
[2]
  MIC: 4 µg/mL
[3]
  HC50 at 1 h: 711 µg/mL
[4]
  MIC: 0.5 µg/mL
[5]
  MIC: 2 µg/mL
[6]
  MIC: 2 µg/mL
[7]
  selectivity ratio: 1420
[8]
  CC50 at 24 h: < 30 µg/mL

## CN[C@H](CC(C)C)C(=O)N[C@H]1C(=O)N[C@@H](CC(N)=O)C(=O)N[C@H]2C(=O)N[C@H]3C(=O)N[C@H](C(=O)N[C@H](C(=O)O)c4cc(O)cc(O)c4-c4cc3ccc4O)[C@H](O)c3ccc(c(Cl)c3)Oc3cc2cc(c3O[C@@H]2O[C@H](CO)[C@@H](O)[C@H](O)[C@H]2O[C@H]2C[C@](C)(N)[C@H](O)[C@H](C)O2)Oc2ccc(cc2Cl)[C@H]1O [VANCOMYCIN]
[2]
  MIC: 2 µg/mL (≈ 1.38 µM)
[15]
  Activity: 3.2 log10CFU/ml
[3]
  HC50 at 1 h: 805 µg/mL
[16]
  Activity: 22.1 um
[17]
  Activity: Active
[18]
  Activity: Active
[19]
  Activity: Active
[20]
  Activity: Active

## CCCCCCNC(=O)C[N+](C)(C)CCCCCCCCCCCC[N+](C)(C)CC(=O)NCCCCCC.[Br-].[Br-]
[21]
  HC50: 805 µg/mL
[3]
  HC50 at 1 h: > 1280 µg/mL
[4]
  MIC: 1 µg/mL
[22]
  selectivity ratio: 805
[7]
  selectivity ratio: > 1280
[23]
  MIC: 1 µg/mL
[8]
  CC50 at 24 h: 19.1 µg/mL

## CCCCCCCNC(=O)C[N+](C)(C)CCCCCCCCCCCC[N+](C)(C)CC(=O)NCCCCCCC.[Br-].[Br-]
[2]
  MIC: 0.062 µg/mL
[21]
  HC50: 1220 µg/mL
[22]
  selectivity ratio: 2440
[23]
  MIC: 0.5 µg/mL
[8]
  CC50 at 24 h: 38.1 µg/mL

## CCCCCCCC[N+](C)(C)CCCOc1cc(OCCC[N+](C)(C)CCCCCCCC)cc(OCCC[N+](C)(C)CCCCCCCC)c1.[Br-].[Br-].[Br-]
[2]
  MIC: 4 µg/mL
[3]
  HC50 at 1 h: > 1280 µg/mL
[4]
  MIC: 2 µg/mL
[5]
  MIC: 1 µg/mL
[6]
  MIC: 4 µg/mL
[7]
  selectivity ratio: > 640
[8]
  CC50 at 24 h: < 30 µg/mL

## CCCCCCN(Cc1ccc(-c2ccc(CN(CCCCCC)C(=O)[C@@H](N)CCCCN)cc2)cc1)C(=O)[C@@H](N)CCCCN.O=C(O)C(F)(F)F.O=C(O)C(F)(F)F.O=C(O)C(F)(F)F.O=C(O)C(F)(F)F
[12]
  MIC: 3.1 µg/mL
[13]
  selectivity ratio: 74.2
